The test system of series [1] is tobacco cutworms (Prodenia litura Fabricius). The series can be described thus: Mortality test with tobacco cutworms by topical application method. In kind it is in vivo. The settings on record: 24 h. On the procedure:
Mortality test with tobacco cutworms (Prodenia litura Fabricius) by topical application method
Using a microsyringe, 0.5 μl of the above solution was dripped onto the thoracic adbominal region of each of 3-instar tobacco cutworm (Prodenia litura Fabricius) larvae. […] The test larvae were used in groups of 20 individuals each.

The test system of series [2] is carp and water flea. The series can be described thus: Fish toxicity ranking according to Japanese regulations. Further details: species or system Cyprinus carpio L; Daphnia pulex. The note with it: from TLm for carp and water flea. In outline: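 Ranking per Japanese agrochemical regulations from median tolerance limits: A = carp TLm (48 hrs.) >10 ppm and water flea TLm (3 hrs.) >0.5 ppm; B = carp 10-0.5 ppm, or carp >10 ppm with water flea <0.5 ppm; C = carp TLm (48 hrs.) <0.5 ppm.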

The subject of series [3] is brown planthoppers (Nilaparvata lugens Stal). The series can be described thus: Utility Example-1: LC50 on adult brown planthoppers on dipped rice plants. In kind it is in vivo. The settings on record: Nilaparvata lugens, 24 h, 25° C., read-out: Pesticidal activity LC50. The method in brief: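 Rice plants 4 weeks from sowing were dipped in water-diluted 1% emulsifiable concentrate at set concentrations and air-dried. Thirty adult N. lugens were caged on each pot, held at 25 °C.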

Series [4] can be described thus: Fish toxicity safety factor (TLm divided by maximum concentration in cover water). Also on record: species or system carp. The note with it: in vivo, TLm / maximum concentration in cover water at LC50 application (100 l per 10 ares, 5 cm depth). The method in brief:
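Calculated index: carp TLm (ppm) divided by the maximum compound concentration expected in paddy cover water. That concentration assumes 100 l of solution at the pest LC50 applied per 10 ares onto 5 cm deep cover water, all of it entering the water.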

The test system of series [5] is green rice leafhoppers (Nephotettix cincticeps Uhler). Briefly: Utility Example-2: spray on rice plants, green rice leafhoppers. Format: in vivo. The note with it: 7 ml/pot, 24 hours. Here is the method: A 30% emulsifiable concentrate of each of the cis- and trans-isomers and a 50:50 mixture of the cis- and trans-isomers of Compound (1) and Compound (2) as prepared by the procedure described in Formulation Example-1 was diluted with water to a concentration of 80 ppm as active compound. Rice plants 4 weeks after sowing in pots (each pot 6 cm in diameter, 7 seedlings) were sprayed with the above solution at the rate of 7 ml/pot and, after drying in the air, each pot was covered with a wire-mesh cage. Then, 20 female adult green rice leafhoppers (Nephotettix cincticeps Uhler) were released into the cage. The caged pots were kept in a constant-temperature chamber at 25° C. […] In all groups, the mortality values were not less than 90%.

Series [6] deals with small brown planthoppers (Laodelphax striatellus Fallen). Briefly: Utility Example-3: spray on rice plants, small brown planthoppers. Format: in vivo. The note with it: 7 ml/pot, 24 hours. On the procedure: A 30% emulsifiable concentrate of each of the cis- and trans-isomers and a 50:50 mixture of the cis- and trans-isomers of Compound (1) and of Compound (2) as prepared by the procedure described in Formulation Example-1 was diluted with water to a concentration of 80 ppm as active compound. Rice plants 4 weeks after sowing in pots (each pot 6 cm in diameter, 7 seedlings) were sprayed with the above diluted solution at the rate of 7 ml/pot and, after drying in the air, each pot was covered with a wire-mesh cage. Then, 30 adult small brown planthoppers (Laodelphax striatellus Fallen) were released into the cage. The pots were kept in a constant-temperature chamber at 25° C. […] In all groups, the mortality was not less than 90%.

In series [7] the test system is green rice leafhoppers (Nephotettix cincticeps Uhler). The series can be described thus: Utility Example-4: 0.2% dust on rice seedlings, green rice leafhoppers. In kind it is in vivo. The note with it: 5 kg per 10 ares, 24 hours, resistant to organophosphorus and carbamate pesticides. The text has this:
A 0.2% dust preparation of each of the cis- and trans-isomers and a 50:50 mixture of the cis- and trans-isomers of Compound (1) and of Compound (2) as prepared by the procedure described in Formulation Example-3 was applied to rice seedlings by means of a bell-jar duster at the rate of 5 kg per 10 ares. […] In all cases, the mortality was not less than 90%.

Series [8] concerns brown planthoppers (Nilaparvata lugens). The series can be described thus: Utility Example-7: 0.5% dust on rice seedlings, brown planthoppers. In kind it is in vivo. The note with it: 1 kg per 10 ares, 24 hours. The text has this: A 0.5% dust preparation of each of the cis- and trans-isomers and a 50:50 mixture of the cis- and trans-isomers of Compound (1) and of Compound (2) as prepared by the procedure described in Formulation Example-4 was applied to rice seedlings, on which 30 adult brown planthoppers (Nilaparvata lugens) were released, by means of a bell-jar duster at the rate of 1 kg per 10 ares. […] In all cases, the mortality was not less than 90%.

The subject of series [9] is houseflies (Musca domestica). The series can be described thus: Mortality test with houseflies by topical application method. The settings on record: 24 h; for mortality at 0.001 mg: read-out: Pesticidal effect, housefly.
Procedure: Mortality test with houseflies (Musca domestica) by topical application method
Each of the compounds according to this invention and the control compounds (Table 2) was accurately weighted and a 0.1% solution of each sample in acetone was prepared. Female adult houseflies (Musca domestica) resistant to organophosphorus pesticides, were anesthetized with ether and 0.5 μl or 1.0 μl of the above solution was micropipetted onto the prothoracic dorsal region of each insect. The insects were then put in a high-walled dish together with feed and the dish was covered with a wire-mesh cover and kept at a temperature of 25° C. The test insects were used in groups of 30 individuals each. After 24 hours the insects were examined for deaths and the percent mortality was calculated.
Setting [10] is: read-out: Pesticidal effect, tobacco cutworm.

Values after ≈ are worked out from the molar mass of the structure shown. Read-outs that look alike come from different tables or passages of the source.

In the case of `CC1(C)[C@@H](C=C(Cl)Cl)[C@@H]1C(=O)OCc1cccc(Oc2ccc(Cl)cc2)c1` (relative stereo) [Compound (1) trans-, 3-(4-chlorophenoxy)benzyl trans-2,2-dimethyl-3-(2,2-dichlorovinyl)cyclopropanecarboxylate], the mortality at 0.0001 mg in series [1] worked out at 100%. Further, the Ranking result in [2] was “B (TLm (48 hrs.) value 10-0.5 ppm for carp; or TLm (48 hrs.) value >10 ppm for carp and TLm (3 hrs.) value <0.5 ppm for water flea, wherein appreciable toxicity to fishes is not observed by usual application but may be observed when applied to wide area at one time.)”. For the same compound, the LC50 in series [3] is 650 µg/mL (≈ 1530 µM). Moreover, the selectivity ratio in [4] was 3.5. Moreover, the mortality at 80 ppm in [5] and in [6] was at least 90% throughout. Besides, the mortality entry in series [7] and in [8] was “not less than 90%” throughout. For the same compound, in series [9], the mortality at 0.5 µg/female was 100%. Further, the mortality at 1 µg/female in series [9] turned out to be 100%.
Consider `C#CC(OC(=O)[C@@H]1[C@H](C=C(Cl)Cl)C1(C)C)c1cccc(Oc2ccc(Cl)cc2)c1` (relative stereo) [Compound (2) cis-], for which the mortality at 0.0001 mg in series [1] was 100%. Moreover, in series [2], the Ranking result was “B (TLm (48 hrs.) value 10-0.5 ppm for carp; or TLm (48 hrs.) value >10 ppm for carp and TLm (3 hrs.) value <0.5 ppm for water flea, wherein appreciable toxicity to fishes is not observed by usual application but may be observed when applied to wide area at one time.)”. Moreover, the median lethal concentration (LC50) in series [3] amounted to 200 µg/mL (≈ 445 µM). The selectivity ratio in [4] was 2.1. Moreover, the mortality at 80 ppm in series [5] and in [6] was at least 90% each time. The mortality result in series [7] and in series [8] was “not less than 90%” throughout. The mortality at 0.5 µg/female in [9] is 100%. Besides, the mortality at 1 µg/female in series [9] amounted to 100%.
Regarding `C#CC(OC(=O)[C@@H]1[C@@H](C=C(Cl)Cl)C1(C)C)c1cccc(Oc2ccc(Cl)cc2)c1` (relative stereo) [Compound (2) trans-], the mortality at 0.0001 mg in series [1] came to 100%. The Ranking result in series [2] was “A (TLm (48 hrs.) value >10 ppm for carp and TLm (3 hrs.) value >0.5 ppm for water flea, wherein toxicity to fishes is not observed by usual application.)”. In addition, the LC50 in [3] stood at 180 µg/mL (≈ 400 µM). Besides, in series [4], the selectivity ratio is above 28. Also, the mortality at 80 ppm in series [5] and in series [6] was at least 90% each time. In addition, the mortality entry in [7] and in series [8] was “not less than 90%” each time. In series [9], this compound gave a mortality at 0.5 µg/female of 100%. The compound also displayed a mortality at 1 µg/female in [9] of 100%.
For `C#CC(OC(=O)C1C(C=C(Cl)Cl)C1(C)C)c1cccc(Oc2ccc(Cl)cc2)c1` (stereo not drawn) [Compound (2) cis-/trans- = 50:50, 3-(4-chlorophenoxy)-α-ethynylbenzyl 2,2-dimethyl-3-(2,2-dichlorovinyl)cyclopropanecarboxylate], the mortality at 0.0001 mg in series [1] and in series [1] (setting [10]) was 100% throughout. Moreover, the Ranking entry in [2] is “B (TLm (48 hrs.) value 10-0.5 ppm for carp; or TLm (48 hrs.) value >10 ppm for carp and TLm (3 hrs.) value <0.5 ppm for water flea, wherein appreciable toxicity to fishes is not observed by usual application but may be observed when applied to wide area at one time.)”. For the same compound, in series [3], the LC50 turned out to be 190 µg/mL (≈ 422 µM). The mortality at 80 ppm in [5] and in series [6] was at least 90% in each case. Further, the mortality result in series [7] and in series [8] was “not less than 90%” each time. For the same compound, in series [9], the mortality at 0.5 µg/female is 100%. The same compound showed a mortality at 1 µg/female in series [9] of 100%. In addition, in series [9], the mortality at 0.001 mg was 100%.
`CC1(C)C(C=C(Cl)Cl)C1C(=O)OCc1cccc(Oc2ccccc2)c1` (stereo not shown) [Compound (B), Permethrin] registered a mortality at 0.0001 mg in [1] of 85%. The mortality at 0.0001 mg in series [1] (setting [10]) is 85%. Further, in series [2], the Ranking result is “C (TLm (48 hrs.) value <0.5 ppm for carp, wherein toxicity to fishes is so strongly observed by usual application that both the application method and application area are strictly restricted.)”. The LC50 in series [3] is 700 µg/mL (≈ 1790 µM). Moreover, the selectivity ratio in [4] stood at 0.01. For the same compound, in series [9], the mortality at 0.5 µg/female came out at 100%, the mortality at 1 µg/female is 100% and the mortality at 0.001 mg is 100%.

A word on the LC50: it is the concentration that kills 50% of the test population.

Values taken from patent publication US4389412A, “Substituted cyclopropanecarboxylic acid esters and pesticidal compositions containing the same as active ingredient” (priority 1979, dated 1983).
